Data published in paper PMC5895803, “Inhibition of cancer stem cell like cells by a synthetic retinoid” (Nature Communications, 2018).

What was measured:
[1] = test system: human breast cancer MCF-7; assay: Colony growth of MCF-7 TRCs in 90-Pa fibrin gels; assay type: cell-based
Protocol: (§1) Salmon fibrinogen and thrombin were purchased from Reagent Proteins (CA, USA). 3D fibrin gels were prepared as described previously[5],[6]. In brief, fibrinogen was diluted into 2 mg mL^−1 with T7 buffer (pH 7.4, 50 mM Tris, 150 mM NaCl). Cells were detached from 2D rigid dishes and cell density was adjusted to 10^4 cells per mL. Fibrinogen and cell solution mixture were made by mixing the same volume of fibrinogen solution and cell solution, resulting in 1 mg mL^−1 fibrinogen and 5000 cells per mL in the mixture fibrin gels. A volume of 50 μL cell/fibrinogen mixture was seeded into each well of 96-well plate and mixed well with pre-added 1 μL thrombin (100 U mL^−1). The cell culture plate was then incubated in 37 °C cell culture incubator for 10 min. Finally, 200 μL of DMEM medium containing 10% FBS and antibiotics was added.

[2] = test system: human malignant melanoma A375; assay: Colony growth of A375 TRCs in 90-Pa fibrin gels; assay type: cell-based; conditions: Homo sapiens
Protocol: as §1

[3] = test system: B16-F1 melanoma cells / TRCs; assay: Apoptosis by Annexin-V and PI flow cytometry; assay type: cell-based, murine; conditions: 10 μM, 24 h after treatment
Protocol: For Annexin-V and PI staining to quantify cell apoptosis, treated TRCs were isolated from 3D fibrin gel by using 5 mg mL^−1 Dispase II (Sigma), cells were labeled with FITC-conjugated Annexin-V and PI according to the manufacturer’s instruction (Biolegend). Data were acquired on a BD Cantoll (BD biosciences) and analyzed with FlowJo software. For BrdU staining to quantify cell proliferation, cells were labeled with FITC-conjugated anti-BrdU antibody according to the manufacturer’s instruction (FITC BrdU Flow Kit, BD Biosciences) and then data were acquired on an Accuri C6 (BD Biosciences) and analyzed with BD Accuri C6 software.
Supplementary Figure 12. WYC-209 induces TRC apoptosis at 10 µM. (a)
Murine melanoma B16-F1 cells were seeded into 3D soft fibrin gels and then treated […]
The cells were collected after 24 hours and stained with FITC-conjugated Annexin-V and PI for apoptotic detection by flow cytometry. Apoptotic cells (%) = 100% - (Annexin-V-PI-) %. Mean ± s.e.m.; 3 separate experiments; *** P<0.001 (Student’s t-test). (b) Original images of flow cytometry of (a).
(§2) (1 picture or pasted object on this page, not shown here)
Supplementary Figure 38. WYC-209 induces tumor cell apoptosis. […]

Sox2 = Sox2 expression by qPCR in TRCs; assay type: cell-based, murine
Protocol: (§3) Total mRNA was isolated from the cells using the Trizol reagent according to the supplier’s instruction (Invitrogen). Reverse transcription (RT) was performed using the TransScript First-strand cDNA Synthesis SuperMix (TransGen), according to the manufacturer’s protocol. Real-time RT-PCR was performed using GoTaq qPCR Master Mix (Promega). The data were normalized against mouse glyceraldehyde 3-phosphate dehydrogenase. The primer sequences are as follows: mouse GAPDH (F: 5′-[…]-3′, R: 5′-[…]-3′); mouse RARα (F: 5′-[…]-3′, R: 5′-[…]-3′); mouse RARβ (F: 5′-[…]-3′, R: 5′-[…]-3′); mouse RARγ (F: 5′-[…]-3′, R:5′-[…]-3′); mouse Sox2 (F: 5′-[…]-3′, R: 5′-[…]-3′); mouse Mitf (F: 5′-[…]-3′, R: 5′-[…]-3′).
(§4) Supplementary Figure 39. WYC-209 decreases Sox2 expression but has no effects on Mitf expression. Murine melanoma cells B16-F1 were seeded into 3D soft fibrin gels and then were treated with 0.1% DMSO, 0.1, 1 or 10 µM WYC-209, WYC-209A, or WYC-209B on day 4. mRNA of cells were extracted after 24 hours. Sox2 (a) and Mitf (b) expressions […]
as §2

Mitf = Mitf expression by qPCR in TRCs; assay type: cell-based, murine; conditions: 0.1–10 µM for 24 h
Protocol: as §3, §4, §2

**Q.** CCOC(=O)c1cnc(C#Cc2ccc3c(c2)C(C)(C)CC[S+]3[O-])nc1 (centres unmarked) [WYC-209] was tested. Which IC50 ([1]; MCF7, 0 h, MCF-7, treated on day 0) did it give?
**A.** 100 nM

**Q.** What about the inhibition at 10 µM ([1]; MCF7, MCF-7, 10 μM) of the same compound?
**A.** 100%

**Q.** And the IC50 ([2]; A-375, 0 h, A375, treated on day 0)?
**A.** 380 nM

**Q.** And the inhibition at 10 µM ([2]; A-375, A375, 10 μM)?
**A.** 100%

**Q.** What about the “Apoptosis of un-selected melanoma cells or melanoma TRCs” value [3] of the same compound?
**A.** ~ 95%

**Q.** What about the “Decrease of Sox2 expression” value (Sox2; 10 μM, 24 h) of the same compound?
**A.** ~ 50%

**Q.** What about the “Change in Sox2 expression” value (Sox2; 0.1 or 1 µM) of the same compound?
**A.** no change

**Q.** What about the “Change in Mitf expression” value (Mitf) of the same compound?
**A.** did not change
